Measurements: US20060110468A1, “Herbal formulations for arthritis” (priority 2004, published 2006)

Experiments:
[1] = tested on: rat paw edema evoked by egg white; assay: Egg white induced paw edema test in rats; assay type: in vivo; conditions: 8 mg/kg
Method: (§1) The anti-inflammatory effects of above extracts of the present invention were investigated in acute inflammatory models induced by either carrageenan or egg white.
(§2) Rats received a subplantar injection of carrageenan (0.1 ml of a 1% suspension in 0.85% saline; Sigma Chemical Co., St Louis, Mo., USA) or egg white (0.1 ml of a 10% solution in 0.85% saline) in the left hind paw. The total volume injected was 0.1 ml.
(§3) Indomethacin was administered to animals in the positive control group.
(§4) The volume of paw edema (in ml) was measured in each animal using a plethysmometer (Plethysmometer 7150, Ugo Basile, Italy) to a precision of two decimal places. The measurements were made immediately before and 2, 4, 6, 24 h after the carrageenan injection or 1, 2, 3, and 4 h after the injection of egg white. The swelling rate of paw was the percentage difference in paw volume and calculated by the following equation: Swelling rate (%)=(A−B)×100/B, where A represents the paw volume at different time points after injection, and B represents the paw volume before injection.
(§5) Values are presented as mean±SD.

[2] = tested on: rat paw edema evoked by carrageenan; assay: Carrageenan induced paw edema test in rats; assay type: in vivo; conditions: 10 mg/kg
Method: as §1, §2, §3, §4, §5

[3] = tested on: writhing activity of mice induced by acetic acid; assay: Acetic acid writhing test in mice; assay type: in vivo, ICR mice; conditions: one hour after administration; for The number of writhing episodes: mice
Method: In the writhing test, acetic acid is injected into the intraperitoneal cavity of mice. This induces acute inflammatory pain characterized by a contraction wave of abdominal musculature through stretching of the hind limbs that is called writhing, and the number of writhing episodes is evaluated.
Male and female ICR mice weighing 18 g to 25 g were fasted for one day before the test. […] The animals were then placed in individual 101×15 cm Plexiglas observation chambers for a 10-min acclimatization period. Acetic acid, 0.8% in 0.85% saline was injected i.p. into each mouse the animals were then returned into their respective transparent chambers.
The animals were then observed for a specific period (15 or 20 mins) and the number of writhing episodes was counted. For scoring purpose, a writhe was indicated by a contraction wave of abdominal musculature with simultaneous stretching of at least one hind limb.
as §5

SMILES: C[C@@H]1C[C@H]2[C@@H]3CCC4=CC(=O)C=C[C@]4(C)[C@@]3(F)[C@@H](O)C[C@]2(C)[C@@]1(O)C(=O)CO [Dexamethasone]
- Swelling percentage of paw volume after stimulation (%) 1 hr ([1]; 1 hr): 26.66 ± 3.34 %
- Swelling percentage of paw volume after stimulation (%) 2 hr ([1]; 2 hr): 19.31 ± 5.83 %
- Swelling percentage of paw volume after stimulation (%) 3 hr ([1]; 3 hr): 9.12 ± 4.42 %
- Swelling percentage of paw volume after stimulation (%) 4 hr ([1]; 4 hr): 7.49 ± 4.08%

SMILES: COc1ccc2c(c1)c(CC(=O)O)c(C)n2C(=O)c1ccc(Cl)cc1 [Indomethacin]
- inhibition of swelling evoked by carrageenan (in words) ([2]; positive control, not observed at 24 hrs after stimulation): inhibited the swelling within 7 hrs after drug administration
- Percentage change in swelling after injecting carrageenan (%) 2 hour ([2]; rat, 2 hour): 12.27 ± 4.61 %
- Percentage change in swelling after injection of carrageenan (%) 2 hour ([2]; rat, 2 hour (Table 13)): 12.27 ± 4.61 %
- Percentage change in swelling after injecting carrageenan (%) 4 hour ([2]; rat, 4 hour): 15.12 ± 7.85 %
- Percentage change in swelling after injection of carrageenan (%) 4 hour ([2]; rat, 4 hour (Table 13)): 15.12 ± 7.85 %
- Percentage change in swelling after injecting carrageenan (%) 6 hour ([2]; rat, 6 hour): 15.32 ± 7.84 %
- Percentage change in swelling after injection of carrageenan (%) 6 hour ([2]; rat, 6 hour (Table 13)): 15.32 ± 7.84 %
- Percentage change in swelling after injecting carrageenan (%) 24 hour ([2]; rat, 24 hour): 35.36 ± 14.65%
- Percentage change in swelling after injection of carrageenan (%) 24 hour ([2]; rat, 24 hour (Table 13)): 35.36 ± 14.65%

SMILES: COC1=C[C@@H]2[C@@H]3Cc4ccc(OC)c(O)c4[C@]2(CCN3C)CC1=O [Sinomenine]
- The number of writhing episodes ([3]; 0.0375 g/kg): 25 ± 9
- inhibition to the writhing activity of mice induced by acetic acid (in words) ([3]; tetrahydropalmatine 0.09 g/kg, sinomenine 0.0375 g/kg, capsule 12.7 g/kg and 25.50 g/kg): significant compared to control group

SMILES: COc1cc2c(cc1OC)[C@@H]1Cc3ccc(OC)c(OC)c3CN1CC2 [Tetrahydropalmatine]
- The number of writhing episodes ([3]; 0.090 g/kg): 11 ± 6
